Assays:
[1] = system: FMN RT RNA (FMN riboswitch in structure cassette) (RNA, riboswitch) GGGCCUUCGGGCCAAUGUAUCCUUCGGGGCAGGGUGGAAAUCCCGACCGGCGGUAGUAAAGCACAUUUGCUUUAGAGCCCGUGACCCGUGUGCAUAAGCACGCGGUGGAUUCAGUUUAAGCUGAAGCCGACAGUGAAAGUCUGGAUGGGAGAAGGAUGAUCGAUCCGGUUCGCCGGAUCCAAAUCGGGCUUCGGUCCGGUUC; assay: reverse transcription termination after photo-cross-linking; details: covalent; folding buffer, 37 °C; 10 μM probe, 2 μM RNA; stops competed by FMN
[2] = system: FMN RT RNA (FMN riboswitch in structure cassette) (RNA, riboswitch) GGGCCUUCGGGCCAAUGUAUCCUUCGGGGCAGGGUGGAAAUCCCGACCGGCGGUAGUAAAGCACAUUUGCUUUAGAGCCCGUGACCCGUGUGCAUAAGCACGCGGUGGAUUCAGUUUAAGCUGAAGCCGACAGUGAAAGUCUGGAUGGGAGAAGGAUGAUCGAUCCGGUUCGCCGGAUCCAAAUCGGGCUUCGGUCCGGUUC; assay: SHAPE (NAI); details: 15 mM MgCl2, 100 mM KCl; 50 mM HEPES pH 8.0, 37 °C; 100 μM compound
[3] = system: FMN riboswitch aptamer (FMN RNA) (RNA, riboswitch) GGGUGUAUCCUUCGGGGCAGGGUGGAAAUCCCGACCGGCGGUAGUAAAGCACAUUUGCUUUAGAGCCCGUGACCCGUGUGCAUAAGCACGCGGUGGAUUCAGUUUAAGCUGAAGCCGACAGUGAAAGUCUGGAUGGGAGAAGGAUGA; assay: photoaffinity labeling, Cy5 click fluorescence and PAGE; details: covalent; 10 μM probe; competed out by 10 μM FMN
[4] = system: FMN riboswitch aptamer (FMN RNA) (RNA, riboswitch) GGGUGUAUCCUUCGGGGCAGGGUGGAAAUCCCGACCGGCGGUAGUAAAGCACAUUUGCUUUAGAGCCCGUGACCCGUGUGCAUAAGCACGCGGUGGAUUCAGUUUAAGCUGAAGCCGACAGUGAAAGUCUGGAUGGGAGAAGGAUGA; assay: photoaffinity labeling, Cy5 click fluorescence; details: covalent, 10 μM probe
[5] = system: FMN riboswitch aptamer (FMN RNA) (RNA, riboswitch) GGGUGUAUCCUUCGGGGCAGGGUGGAAAUCCCGACCGGCGGUAGUAAAGCACAUUUGCUUUAGAGCCCGUGACCCGUGUGCAUAAGCACGCGGUGGAUUCAGUUUAAGCUGAAGCCGACAGUGAAAGUCUGGAUGGGAGAAGGAUGA; assay: competitive photoaffinity labeling, PAGE; details: displaces probe 1 (10 μM), UV cross-linked, fluorescein-azide click
[6] = system: FMN riboswitch aptamer (FMN RNA) (RNA, riboswitch) GGGUGUAUCCUUCGGGGCAGGGUGGAAAUCCCGACCGGCGGUAGUAAAGCACAUUUGCUUUAGAGCCCGUGACCCGUGUGCAUAAGCACGCGGUGGAUUCAGUUUAAGCUGAAGCCGACAGUGAAAGUCUGGAUGGGAGAAGGAUGA; assay: competitive photoaffinity labeling, microplate reader fluorescence; details: displaces probe 1

C#CC[C@@H](C(=O)NCCC1(C)N=N1)N(CCCC(=O)O)CCn1c2nc(=O)[nH]c(=O)c-2nc2cc(C)c(C)cc21
binding [1]: yes
binding [2]: yes
binding [3]: yes

C#CC[C@@H](C(=O)NCCc1ccc(C(=O)c2ccccc2)cc1)N(CCCC(=O)O)CCn1c2nc(=O)[nH]c(=O)c-2nc2cc(C)c(C)cc21
binding ([4]; low click efficiency not excluded): weak

C#CC[C@@H](C(=O)NCCc1ccc(N=[N+]=[N-])cc1)N(CCCC(=O)O)CCn1c2nc(=O)[nH]c(=O)c-2nc2cc(C)c(C)cc21
binding [4]: yes

Cc1cc2nc3c(=O)[nH]c(=O)nc-3n(C[C@H](O)[C@H](O)[C@H](O)CO)c2cc1N(C)C
apparent IC50 [5]: 7000 ± 180 nM

Cc1cc2nc3c(=O)[nH]c(=O)nc-3n(C[C@H](O)[C@H](O)[C@H](O)COP(=O)(O)O)c2cc1C
apparent IC50 [6]: 400 ± 10 nM
binding [2]: yes
apparent IC50 [5]: 400 ± 10 nM
